Like-named read-outs stand apart in the source and are kept apart here.
Assays:
[1] = system: leukemia tumour line L 1210; assay: In vitro cytotoxic activity on leukemia tumour line L 1210; format: cell-based; conditions: L 1210, 48 hours contact, 37° C., read-out: I D 50 (concentration which inhibits the proliferation of the cells by 50%)
How it was run: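 Exponentially growing L 1210 leukemia cells were exposed to increasing compound concentrations at 37 °C under CO2 and counted every 24 h. ID50, the concentration inhibiting proliferation by 50%, was calculated after 48 h contact.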

[2] = system: melanoma B 16; assay: Test for melanoma B 16; format: in vivo, BDF1 hybrid mice; conditions: D1-D9; for Number of survivors: day D60; for T/C %: survival time
How it was run: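 BDF1 mice inoculated i.p. with 0.5 ml B16 melanoma homogenate (1 g tumour in 10 ml physiological serum); compound given i.p. daily D1–D9, Cis-platine positive control under same conditions. Surviving animals counted on D60; activity as survival increase vs untreated controls (T/C), toxicity if T/C ≤85%.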

[3] = in vivo; design: species or system CDF1 hybrid mice; conditions: mouse, ip, 50 mg/kg
Text: The compounds of the invention benefit from a good tolerance and a weak toxicity.
Thus the administration, to healthy CDF1 hybrid mice, in a single injection by intraperitoneal route, of the compounds under test, has enabled it to be established that the product is perfectly tolerated at a high dosage since the survival rate of the animals of the experiment was 100 out of 100 thirteen days after administration.

[4] = system: leukemia P 388; assay: Test of leukemia P 388; IP/IP, D1-5; format: in vivo, CDF1 hybrid mice; conditions: D1-D5; for Number of survivors: day D30; for T/C %: survival time
How it was run: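 CDF1 hybrid mice received 10^6 P 388 cells intraperitoneally, then compound in distilled water by intraperitoneal route daily D1-D5, 10 mice per group, 5-fluorouracil as positive control. Activity judged as T/C survival time versus untreated controls, survivors counted at D30; T/C ≤85% or day 5 minus day 1 weight change ≤ −4 g counted as toxic.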

[5] = in vivo; design: species or system female CDF1 hybrid mice; conditions: mouse, iv
Description: In addition the administration, to healthy female CDF1 hybrid mice, in a single injection by intravenous route with a perfusor, lasting 4 minutes, of the compounds under test in solution in physiological serum at a rate of 0.1 ml of solution per 10 g weight of the animals has enabled it to be established that the compounds are also well tolerated at a high dosage in these conditions.

[6] = system: leukemia L 1210; assay: Test for leukemia L 1210 IP/D1 IV; format: in vivo, CDF1 hybrid mice; conditions: for Number of survivors: day D60; for T/C %: survival time
Description: (§1) The antitumour activity was tested in vivo on various tumours inoculated in various ways according to the following general protocol:
(§2) All the male or female mice are inoculated on day D0 with a known quantity of viable tumour cells for ascitic tumours or with a known tumour fragment for solid tumours.
(§3) They are then distributed into various groups. Each group, corresponding to the animals treated by the product under test, is made up of 10 mice. The product under test is dissolved in distilled water and it is administered n times (Dx-Dy), n, y, and x varying according to the protocol chosen, at the rate of 0.1 ml of solution per 10 g by weight of mice treated and at specific doses for each protocol.
(§4) The "negative control" group, corresponding to the animals which are not treated by the product, contains 2√N animals, N being equal to or greater than the total number of mice treated by the product in the same experiment.
(§5) Finally, the tests can also be carried out at the same time as the study of a group called "positive control", of ten animals, which is treated by a molecule, known for its antitumour activity and which can vary according to the protocol chosen, in the same conditions as the groups treated by the product under test.
(§6) The antitumour activity is evaluated, in the case of ascitic tumours, by considering the increase in the survival time of the animals treated in comparison to that of the animals in the "negative control" group, according to the formula: [formula]
(§7) Also, a product is considered as toxic at the dose studied when this T/C value is equal to or less than 85%. In addition, a product is also considered as toxic at the dose studied when the weight variation, expressed in grams and calculated by the formula: […]
The tests are carried out with CDF1 hybrid mice inoculated by intraperitoneal route with 10^5 leukemia cells from the L 1210 line. The compound under test is administered for 5 days (D1-D5) by intraperitoneal route. The positive control for the test is 5-fluorouracile administered in the same conditions. The number of surviving animals is evaluated on day D60.
(g) Test for leukemia L 1210 IP/D1 IV. (GERAN et al., Cancer Chemother., 1972, 2, 07-57).
The test is carried out according to the same protocol as that described for test (c), the compound under test being administered by intravenous route only on day D1.

[7] = system: leukemia P 388; assay: Test for leukemia P 388 IP/D1 IV; format: in vivo, CDF1 hybrid mice; conditions: for Number of survivors: day D30; for T/C %: survival time
Description: as §1, §2, §3, §4, §5, §6, §7
The tests are carried out with CDF1 hybrid mice inoculated by intraperitoneal route with 10^6 leukemia cells from the P 388 line. The compound under test is administered for 5 successive days (D1-D5) by intraperitoneal route. The positive control for the test is 5-fluorouracile which is administered in the same conditions. The number of surviving animals is evaluated on day D30.
(f) Test for leukemia P 388 IP/D1 IV (GERAN et al., Cancer Chemother., 1972, 2, 07-57).
The test is carried out according to the same protocol as that described for test (a), the compound under test being administered by intravenous route only on day D1.

[8] = system: colic adenocarcinoma 38; assay: Test for colic adenocarcinoma 38, SC/D1 IV; format: in vivo, BDF1 hybrid mice; conditions: 50 mg/kg IV
Description: as §1, §2, §3, §4
(§8) the antitumour activity is evaluated, in the case of solid tumours, by considering the reduction in the average tumour volume of the treated animals in comparison with the animals of the "negative control" group, according to the formula: [formula]
(§9) A value for T/C of less than 42% indicates an activity for the product at the studied dose.
(h) Test for colic adenocarcinoma 38, SC/D1 IV. (GERAN et al., Cancer Chemother., 1972, 2, 07-57).
(§10) The tests are carried out with BDF1 hybrid mice inoculated by subcutaneous route with a standardized tumour fragment of 3 mm^3. The compound under test is administered by intravenous route only on day D1.
The number of surviving animals is evaluated on day D38.

[9] = system: colic adenocarcinoma 38; assay: Test for colic adenocarcinoma 38, SC/D2,9 IV; format: in vivo, BDF1 hybrid mice; design: Average tumour volume at D32: unit not given beside the values; conditions: D2 and D9; for Number of survivors: day D32; for T/C % at D32: tumour volume
Description: as §1, §2, §3, §4, §8, §9, §10
(i) Test for colic adenocarcinoma 38, SC/D2,9 IV (GERAN et al., Cancer Chemother., 1972, 2, 07-57).
This test is carried out according to the protocol described for test (h), the compound under test being administered by intravenous route on day D2 then on day D9.
The number of surviving animals is evaluated on day D32.

CCN(CC)CCCNc1ncc(C)c2c1c1cc(O)ccc1n2C [Derivative No. 11, 1-(3-diethylaminopropylamino)-4,5-dimethyl-8-hydroxy-5H-pyrido[4,3-b]indole]
IC50 ([1]; Mus musculus, L1210, 48 h): 0.03 µM | Median day of survival ([2]; 1.25 mg/kg IP): 32.25 days | Variation by weight ([2]; 1.25 mg/kg IP): -2.5 g | Number of survivors ([2]; 1.25 mg/kg IP): 0/10 | T/C % ([2]; 1.25 mg/kg IP): 133% | Median day of survival ([2]; 2.5 mg/kg IP): 35.25 days | Variation by weight (g) ([2]; 2.5 mg/kg IP): +0.6 g | Number of survivors ([2]; 2.5 mg/kg IP): 0/10 | T/C % ([2]; 2.5 mg/kg IP): 145% | Median day of survival ([2]; 5 mg/kg IP): 41.25 days | Variation by weight (g) ([2]; 5 mg/kg IP): +0.2 g | Number of survivors ([2]; 5 mg/kg IP): 3/10 | T/C % ([2]; 5 mg/kg IP): 170% | Median day of survival ([2]; 10 mg/kg IP): 19.3 days | Variation by weight ([2]; 10 mg/kg IP): -1.0 g | Number of survivors ([2]; 10 mg/kg IP): 0/10 | T/C % ([2]; 10 mg/kg IP): 79% | survival at 312 h [3]: 100% | Median day of survival ([4]; 2.5 mg/kg IP): 17.25 days | Variation by weight (g) ([4]; 2.5 mg/kg IP): +1.2 g | Number of survivors ([4]; 2.5 mg/kg IP): 0/10 | T/C % ([4]; 2.5 mg/kg IP): 149% | Median day of survival ([4]; 5 mg/kg IP): 19.25 days | Variation by weight (g) ([4]; 5 mg/kg IP): +0.7 g | Number of survivors ([4]; 5 mg/kg IP): 0/10 | T/C % ([4]; 5 mg/kg IP): 166% | Median day of survival ([4]; 10 mg/kg IP): 23.75 days | Variation by weight (g) ([4]; 10 mg/kg IP): +0.2 g | Number of survivors ([4]; 10 mg/kg IP): 2/10 | T/C % ([4]; 10 mg/kg IP): 205% | Median day of survival ([4]; 20 mg/kg IP): 7.4 days | Variation by weight ([4]; 20 mg/kg IP): -2.8 g | Number of survivors ([4]; 20 mg/kg IP): 0/10 | T/C % ([4]; 20 mg/kg IP): 64% | survival at 192 h ([5]; 40 mg/kg): 100% | survival at 192 h ([5]; 50 mg/kg): 100% | Median day of survival ([6]; 20 mg/kg IV): 11.8 days | Variation by weight ([6]; 20 mg/kg IV): -0.4 g | Number of survivors ([6]; 20 mg/kg IV): 0/10 | T/C % ([6]; 20 mg/kg IV): 132% | Median day of survival ([6]; 40 mg/kg IV): 13.3 days | Variation by weight ([6]; 40 mg/kg IV): -0.2 g | Number of survivors ([6]; 40 mg/kg IV): 0/10 | T/C % ([6]; 40 mg/kg IV): 149%

Cc1cnc(NCCCN(C)C)c2c3cc(O)ccc3n(C)c12 [Derivative No. 15, 4,5-dimethyl 1(3-dimethylaminopropylamino)-8-hydroxy-5H-pyrido[4,3-b]indole]
IC50 [1]: 0.01 µM | Median day of survival ([7]; 50 mg/kg IV): 17.75 days | Variation by weight (g) ([7]; 50 mg/kg IV): +0.5 g | Number of survivors ([7]; 50 mg/kg IV): 1/10 | T/C % ([7]; 50 mg/kg IV): 163% | Median day of survival ([7]; 100 mg/kg IV): 25.75 days | Variation by weight ([7]; 100 mg/kg IV): -0.25 g | Number of survivors ([7]; 100 mg/kg IV): 4/10 | T/C % ([7]; 100 mg/kg IV): 236% | Average tumour volume at D38 [8]: 2.73 | Number of survivors ([8]; day D38): 10/10 | T/C % at D38 ([8]; tumour volume): 30% | Median day of survival ([4]; 1.25 mg/kg IP): 18.0 days | Variation by weight ([4]; 1.25 mg/kg IP): -1.9 g | Number of survivors ([4]; 1.25 mg/kg IP): 0/10 | T/C % ([4]; 1.25 mg/kg IP): 164% | Median day of survival ([4]; 2.5 mg/kg IP): 20.25 days | Variation by weight ([4]; 2.5 mg/kg IP): -1.9 g | Number of survivors ([4]; 2.5 mg/kg IP): 0/10 | T/C % ([4]; 2.5 mg/kg IP): 184% | Median day of survival ([4]; 5 mg/kg IP): 26 days | Variation by weight ([4]; 5 mg/kg IP): -2.5 g | Number of survivors ([4]; 5 mg/kg IP): 1/10 | T/C % ([4]; 5 mg/kg IP): 236% | Median day of survival ([4]; 10 mg/kg IP): 9.3 days | Variation by weight ([4]; 10 mg/kg IP): -4.1 g | Number of survivors ([4]; 10 mg/kg IP): 0/10 | T/C % ([4]; 10 mg/kg IP): 85% | Average tumour volume at D32 ([9]; 25 mg/kg IV): 0.0 | Number of survivors ([9]; 25 mg/kg IV): 10/10 | T/C % at D32 ([9]; 25 mg/kg IV): 0% | Average tumour volume at D32 ([9]; 50 mg/kg IV): 0.0 | Number of survivors ([9]; 50 mg/kg IV): 10/10 | T/C % at D32 ([9]; 50 mg/kg IV): 0%
